These results are taken from ChEMBL document CHEMBL1154805, “Alternaramide, a cyclic depsipeptide from the marine-derived fungus Alternaria sp. SF-5016” (2009).

Activity calls are given as the source filed them. The calls are words filed in the database; no cut-off is given here.

In one assay the test system is Candida albicans. As to the kind of experiment: Antifungal activity against Candida albicans KCTC 7965 at 400 ug/disk after 48 hrs by disk diffusion method. It counts as functional, organism-based.
The test system of a further assay is Cryptococcus neoformans. As to the kind of experiment: Antifungal activity against Filobasidiella neoformans KCTC 7003 at 400 ug/disk after 48 hrs by disk diffusion method. It counts as functional, organism-based. (A growth-free zone around the sample is the usual read-out of agar diffusion tests.)
Assay [1] has as its system Bacillus subtilis. In words: Antibacterial activity against Bacillus subtilis KCTC 1021 at 400 ug/disk after 48 hrs by disk diffusion method. It is filed as functional. The following applies: KCTC 1021, 48 h, read-out: IZ.
Assay [2] concerns the target T1, Tyrosine-protein phosphatase non-receptor type 1 (Homo sapiens) (UniProt P18031).
T1 sequence (whole entry): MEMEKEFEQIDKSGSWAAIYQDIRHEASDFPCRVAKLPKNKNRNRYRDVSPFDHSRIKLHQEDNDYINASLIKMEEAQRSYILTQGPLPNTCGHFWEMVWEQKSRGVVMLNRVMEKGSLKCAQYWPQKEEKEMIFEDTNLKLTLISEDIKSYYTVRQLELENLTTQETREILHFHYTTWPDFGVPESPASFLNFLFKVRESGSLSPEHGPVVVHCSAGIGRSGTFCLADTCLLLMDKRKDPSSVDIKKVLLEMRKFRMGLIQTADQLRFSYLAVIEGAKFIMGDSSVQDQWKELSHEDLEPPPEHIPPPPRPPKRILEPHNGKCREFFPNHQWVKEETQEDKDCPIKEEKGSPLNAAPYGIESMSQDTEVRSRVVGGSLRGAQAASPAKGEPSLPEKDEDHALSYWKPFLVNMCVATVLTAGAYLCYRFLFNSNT
As to the kind of experiment: Inhibition of human recombinant PTP1B assessed as p-nitrophenol release at 150 ug/ml after 30 mins by spectrophotometry.

A further assay concerns Proteus vulgaris. In words: Antibacterial activity against Proteus vulgaris KACC 12674 at 400 ug/disk after 48 hrs by disk diffusion method. It counts as functional, organism-based.
Assay [3] has as its system Staphylococcus aureus. As to the kind of experiment: Antibacterial activity against Staphylococcus aureus KCTC 1928 at 400 ug/disk after 48 hrs by disk diffusion method. It counts as functional. The following applies: KCTC 1928, 48 h, read-out: IZ.
For assay [4], the system named is Bacillus subtilis. As to the kind of experiment: Antibacterial activity against Bacillus subtilis KCTC 1021 at 5 ug/disk after 48 hrs by disk diffusion method. It counts as functional, organism-based.
For assay [5], the system named is Staphylococcus aureus. In words: Antibacterial activity against Staphylococcus aureus KCTC 1928 at 50 ug/disk after 48 hrs by disk diffusion method. It counts as functional, organism-based.

In general, inhibition refers to the share of the control response that was lost under treatment.

In the case of `CC(C)[C@@H]1OC(=O)[C@@H]2CCCN2C(=O)[C@@H](Cc2ccccc2)NC(=O)[C@@H]2CCCN2C(=O)[C@@H](Cc2ccccc2)NC1=O` [ALTERNARAMIDE], the outcome in the assay on Candida albicans, in the assay with Cryptococcus neoformans and with Proteus vulgaris was inactive. Besides, the zone of inhibition at 400 µg/disc in the assay on Bacillus subtilis [1] came out at 8 mm; in the assay on Staphylococcus aureus [3] it was 13 mm. In addition, in assay [2], the inhibition is 49%.

For GENTAMICIN, the inhibition zone (IZ) was 16 mm in the assay with Bacillus subtilis [4] and 13 mm with Staphylococcus aureus [5].
